Experimental data taken from paper PMC6317893 (Journal of pharmaceutical sciences, 2018).
Like-named read-outs stand apart in the source and are kept apart here.

Columns and labels:
mouse Pgp (Abcb1a, MDR3) [1] = biological target: T1, mouse Pgp (Abcb1a, MDR3) (Mus musculus, UniProt P21447)
mouse Pgp (Abcb1a, MDR3) [2] = biological target: T1, mouse Pgp (Abcb1a, MDR3); assay: biochemical
mouse Pgp (Abcb1a, MDR3) [3] = biological target: T1, mouse Pgp (Abcb1a, MDR3); assay: biochemical; remark: listed apart in the source
mouse Pgp (Abcb1a, MDR3) [4] = biological target: T1, mouse Pgp (Abcb1a, MDR3); assay: in vitro; conditions: pH 7.4
Pgp [5] = conditions: cited from earlier work
Pgp [6] = conditions: Caco-2 cells, cited from earlier work
mouse Pgp (Abcb1a, MDR3) [7] = biological target: T1, mouse Pgp (Abcb1a, MDR3); remark: listed apart in the source
Pgp [8] = conditions: rats ref 32; cited from earlier work
mouse Pgp (Abcb1a, MDR3) [9] = biological target: T1, mouse Pgp (Abcb1a, MDR3); remark: listed apart in the source
mouse Pgp (Abcb1a, MDR3) [10] = biological target: T1, mouse Pgp (Abcb1a, MDR3); conditions: for KSV of acrylamide quenching of Pgp (slope of Stern-Volmer plot): 1 μM Pgp
Pgp [11] = conditions: humans ref 32; cited from earlier work
human and mouse Pgp = conditions: study of CNS drugs ref 96; cited from earlier work

T1 sequence (P21447 whole entry): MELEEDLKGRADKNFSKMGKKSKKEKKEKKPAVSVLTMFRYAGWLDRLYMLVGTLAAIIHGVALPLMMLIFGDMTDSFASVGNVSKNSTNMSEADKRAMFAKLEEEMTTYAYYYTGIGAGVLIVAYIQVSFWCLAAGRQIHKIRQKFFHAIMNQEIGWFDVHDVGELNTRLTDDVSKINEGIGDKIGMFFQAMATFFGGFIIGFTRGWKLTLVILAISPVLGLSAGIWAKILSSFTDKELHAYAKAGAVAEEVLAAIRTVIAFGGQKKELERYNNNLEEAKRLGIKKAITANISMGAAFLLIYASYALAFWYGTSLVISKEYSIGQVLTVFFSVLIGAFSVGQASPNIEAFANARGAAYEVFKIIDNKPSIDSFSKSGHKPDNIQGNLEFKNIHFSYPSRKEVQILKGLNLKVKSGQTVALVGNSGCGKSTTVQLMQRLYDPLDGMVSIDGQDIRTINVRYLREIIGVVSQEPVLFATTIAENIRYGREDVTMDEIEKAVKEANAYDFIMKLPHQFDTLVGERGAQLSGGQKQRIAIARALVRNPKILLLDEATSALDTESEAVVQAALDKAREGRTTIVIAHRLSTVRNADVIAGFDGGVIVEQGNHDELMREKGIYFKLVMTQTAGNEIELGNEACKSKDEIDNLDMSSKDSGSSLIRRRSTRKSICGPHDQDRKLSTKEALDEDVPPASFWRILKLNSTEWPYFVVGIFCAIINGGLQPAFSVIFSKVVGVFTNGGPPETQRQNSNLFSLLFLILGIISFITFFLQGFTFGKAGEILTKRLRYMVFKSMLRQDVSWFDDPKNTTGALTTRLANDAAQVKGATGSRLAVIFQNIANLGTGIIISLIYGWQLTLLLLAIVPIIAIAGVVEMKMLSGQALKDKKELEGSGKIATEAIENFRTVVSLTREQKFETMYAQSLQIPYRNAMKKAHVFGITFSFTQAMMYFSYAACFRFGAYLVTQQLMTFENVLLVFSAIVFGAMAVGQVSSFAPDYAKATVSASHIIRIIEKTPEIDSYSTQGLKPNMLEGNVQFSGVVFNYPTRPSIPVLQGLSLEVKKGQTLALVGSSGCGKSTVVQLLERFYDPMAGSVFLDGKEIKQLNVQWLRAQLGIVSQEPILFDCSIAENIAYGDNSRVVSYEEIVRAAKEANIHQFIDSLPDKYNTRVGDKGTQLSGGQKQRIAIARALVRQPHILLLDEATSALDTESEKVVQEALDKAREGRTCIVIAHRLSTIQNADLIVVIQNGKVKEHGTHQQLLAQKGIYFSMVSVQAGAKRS

## C[C@H]1O[C@@H](O[C@H]2[C@@H](O)C[C@H](O[C@H]3[C@@H](O)C[C@H](O[C@H]4CC[C@@]5(C)[C@H](CC[C@@H]6[C@@H]5C[C@@H](O)[C@]5(C)[C@@H](C7=CC(=O)OC7)CC[C@]65O)C4)O[C@@H]3C)O[C@@H]2C)C[C@H](O)[C@@H]1O [digoxin]
Mouse Pgp (Abcb1a, MDR3) [1]; in the presence of 500 μM loperamide, biphasic, fit to Eq. 5, dynamic quenching
  KSV,L (Stern-Volmer constant, low concentration phase): 4.59 ± 2.10 µM⁻¹
Mouse Pgp (Abcb1a, MDR3) [1]; in the presence of 500 μM loperamide, biphasic, fit to Eq. 5, static quenching
  KSV,H (Stern-Volmer constant, high concentration phase): 0.0241 ± 0.0108 µM⁻¹
Mouse Pgp (Abcb1a, MDR3) [2]
  Kd: 32 ± 13.4 µM

## CN(C)C(=O)C(CCN1CCC(O)(c2ccc(Cl)cc2)CC1)(c1ccccc1)c1ccccc1 [loperamide]
Mouse Pgp (Abcb1a, MDR3) [3]
  Ki: 108 ± 27 µM
Mouse Pgp (Abcb1a, MDR3) [4]
  Km: 1.6 ± 0.4 µM
Pgp [5]
  Level in brain, Pgp-knockout mice versus wild-type: > 10 fold
Pgp [6]; 100 μM ref 89
  Transport at 100 μM: inhibited
Pgp [6]; in vitro ref 89
  Concentration at which transport was highest: 5 µM
Mouse Pgp (Abcb1a, MDR3) [7]
  Shape of drug-induced ATPase activation kinetics: biphasic
Mouse Pgp (Abcb1a, MDR3) [7]; at 7.8 μM drug
  ATPase activity, apparent maximum: around 800 nmol min^−1 mg^−1
Mouse Pgp (Abcb1a, MDR3) [7]; at saturating (500 μM) drug
  ATPase activity at saturating drug: ~ 400 nmol min^−1 mg^−1
Pgp [8]
  Levels of loperamide in the presence of cyclosporine A (CsA): elevated levels
Mouse Pgp (Abcb1a, MDR3) [1]; data not shown
  Quenching of intrinsic Pgp fluorescence by the drug: did not quench
Mouse Pgp (Abcb1a, MDR3) [9]; 1 mM drug, 1 μM Pgp in liposomes
  Average STDD amplification factor: ~ 30
Mouse Pgp (Abcb1a, MDR3) [9]; aromatic protons labeled 9–13, 1 mM drug, 1 μM Pgp
  STDD amplification factor of aromatic protons: ~ 30
Mouse Pgp (Abcb1a, MDR3) [10]; 500 μM versus 7.8 μM drug
  Increase of acrylamide-quenching KSV: about 1.4 M^−1
Mouse Pgp (Abcb1a, MDR3) [10]; in the presence of 7.8 μM drug
  KSV of acrylamide quenching of Pgp (slope of Stern-Volmer plot): 0.851 ± 0.002 M⁻¹
Mouse Pgp (Abcb1a, MDR3) [10]; in the presence of saturating 500 μM drug
  KSV of acrylamide quenching of Pgp (slope of Stern-Volmer plot): 2.25 ± 0.17 M⁻¹
Pgp [11]
  Levels of loperamide in the presence of cyclosporine A (CsA): elevated levels
Human and mouse Pgp
  Difference of efflux ratios between human and mouse Pgp: less than 2 fold

## CCC(=O)C(CC(C)N(C)C)(c1ccccc1)c1ccccc1 (stereo not shown) [methadone]
Mouse Pgp (Abcb1a, MDR3) [7]
  ATPase activity at saturating drug: around 800 nmol min^−1 mg^−1
Mouse Pgp (Abcb1a, MDR3) [1]
  Increase of KD at low loperamide concentration: ~ 5 fold
  KSV (Stern-Volmer constant) of drug-induced Pgp fluorescence quenching: 0.0137 ± 0.0022 µM⁻¹
Mouse Pgp (Abcb1a, MDR3) [9]
  Average STDD amplification factor: ~ 10
Mouse Pgp (Abcb1a, MDR3) [2]
  Kd: 72.7 ± 11.7 µM
